From ChEMBL document CHEMBL1137207, “Solution structure of amyloid beta-peptide (25-35) in different media” (J Med Chem, 2004)
“And” between values parts separate entries of the source, which are not always exact repeats. Identical values can stand only once. Where a SMILES comes first, the peptide text is derived from it.

Assay: Retention time of the compound
Type: ADME

Compound: CC[C@H](C)[C@H](NC(=O)[C@H](C)NC(=O)CNC(=O)[C@H](CCCCN)NC(=O)[C@H](CC(N)=O)NC(=O)[C@H](CO)NC(=O)CN)C(=O)N[C@H](C(=O)NCC(=O)N[C@@H](CC(C)C)C(=O)N[C@@H](CCSC)C(=O)O)[C@@H](C)CC (H-GSNKGAIIGLM-OH)
- tR: 13.37 min and 10.93 min
